Measured values from patent US6818407B2, “Anti-endotoxic antimicrobial cationic peptides and methods of use therfor” (priority 1998, dated 2004).
Ends that are not written are not given here.

Columns and labels:
[1] = tested on: Aeromonas salmonicida (As); type: cell-based; details: Mueller Hinton Broth
Method: (§1) The biological activity of the peptides can be determined by standard methods known to those of skill in the art, such as Aminimal inhibitory concentration (MIC)≅ assay described in the present examples, whereby the lowest concentration at which no change in OD is observed for a given period of time is recorded as MIC. Alternatively, Afractional inhibitory concentration (FIC)≅ is also useful for determination of synergy between the peptides of the invention, or the peptides in combination with known antibiotics. FICs are performed by checkerboard titrations of peptides in one dimension of a microtiter plate, and of antibiotics in the other dimension, for example. The FIC is calculated by looking at the impact of one antibiotic on the MIC of the other and vice versa. […] Preferably, an FIC of less than 0.5 is obtained for synergism. As used herein, FIC can be determined as follows: [formula]
(§2) These peptides varied in activity (Table 11), however, the C-terminally capped pleurocidin especially and its N-terminally capped lysine derivative had much better activities against a variety of bacteria including Vibrio anguillarum (Va), Aeromonas salmonicida (As), Staphylococcus epidermidis (C621), Salmonella typhimurium wild type (C587) and phoP phoQ mutant (C610), and Pseudomonas aeruginosa wild type (K799) and outer membrane barrier altered (Z61). The antimicrobial peptide CEME, a fusion peptide made from portions of an insect defensin ceropin A and the bee venom peptide melittin (Piers and Hancock, Mol. Microbiol., 12:951-8, 1994), as well as the known antibiotics polymyxin B and gentamicin were used as controls. Replacing the pleurocidin N-terminus with the dermaseptin N-terminus had no effect. Replacing pleurocidin N-terminus with the ceratoxin N-terminus reduced activity. […] Amidating the C-terminus improved antimicrobial activity. Replacing the pleurocidin C-terminus with the misgurin C-terminus had no effect.
(§3) Bacteria included Vibrio anguillarum (Va), Aeromonas salmonicida (As), Staphylococcus epidermidis (C621), Salmonella typhimurium wild type (C587) and phoP phoQ mutant (C6 10), and Pseudomonas aeruginosa wild type (K799) and outer membrane barrier altered (Z61).

[2] = tested on: Pseudomonas aeruginosa outer membrane barrier altered (Z61); type: cell-based; details: Mueller Hinton Broth
Method: as §1, §2, §3

[3] = tested on: Pseudomonas aeruginosa wild type (K799); type: cell-based; details: Mueller Hinton Broth
Method: as §1, §2, §3

[4] = tested on: Salmonella typhimurium phoP phoQ mutant (C610); type: cell-based; details: Mueller Hinton Broth
Method: as §1, §2, §3

[5] = tested on: Salmonella typhimurium wild type (C587); type: cell-based; details: Mueller Hinton Broth
Method: as §1, §2, §3

[6] = tested on: Staphylococcus epidermidis (C621); type: cell-based; details: Mueller Hinton Broth
Method: as §1, §2, §3

Vibrio anguillarum (Va) = type: cell-based; details: Mueller Hinton Broth
Method: as §1, §2, §3

V. anguillarum = assay: Protection of coho salmon, peptide delivered constantly by intraperitoneal mini-osmotic pump; type: in vivo, juvenile coho salmon; details: P-CN osmotic pump, 19 fish; for Accumulated Mortalities: 30 days, saline pump control 75%, bacteria alone 67%
Method: Constant delivery of peptide P-CN using intraperitoneal mini-osmotic pumps was carried out. Briefly, juvenile coho salmon were divided into three treatment groups: A. Bacterial injection alone (12 fish). B. Fish saline osmotic pump and bacterial injection (12 fish). C. A combination of P-CN osmotic pump and bacterial injection (19 fish). The fish were anaesthetized and implanted (peritoneal cavity) with mini-osmotic pumps having a pumping rate of 0.13 µl/hour. Heaters were placed in the tanks to keep the water temperature between 12 and 13° C. Pumps were filled with concentrated P-CN to deliver approximately […] peptide to fish over a 30-day period. Twelve days after pump implantation, the fish received intraperitoneal injections of V. anguillarum ([…]). Mortalities were first noticed on day 3 for the group injected with bacteria alone and on day 5 for the group which received saline osmotic pumps as well as bacterial injections. However, there was no significant difference in mortality between the bacterial injection alone group and the saline osmotic pump group (67% vs. 75%). Mortalities were delayed for the P-CN osmotic pump group. The P-CN osmotic pump group had only one fish die on day 6 over the 30 days experiments with an accumulated mortality of 5%. […] Furthermore, since cationic peptides are not effective in a single treatment and constant administration is necessary, this argues for the potential success of transgenic fish expressing peptide P-CN.
Fish loss from disease is a significant problem in aquaculture worldwide. However, expression of natural cationic peptide genes in fish could increase disease resistance because of continual cellular production of the antimicrobial peptides. In order to choose optimal peptides for transgenic fish, the antimicrobial activities of some cationic peptides were determined by testing minimum inhibitory concentrations (MICs) in vitro. […] The in vivo effect of CEME was examined by intraperitoneal injection of the peptide along with V. anguillarum into juvenile coho salmon. Fish in the bacteria alone control group had 60% mortality, while fish receiving peptide and bacteria injections had 82% mortality. […] Therefore, constant delivery of CEME and Pleurocidin-CN using intraperitoneal mini-osmotic pumps were carried out. Twelve days after pump implantation, the fish received intraperitoneal injections of V. anguillarum. The CEME and pleurocidin-CN pump group had longer survival time and lower mortalities than the control groups (50% Vs. 13%, and 75% Vs. 5%, respectively). Indolicidin transgenic cutthroat trout were made using a construct including an MT promoter, growth hormone signal, pre-region, indolicidin, and terminator. […]

E. coli [7] = assay: MIC, broth microdilution assay in polypropylene microtiter trays; type: cell-based; details: average of three separate experiments
How it was run: (§4)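 Each peptide's inhibitory endpoint is based on optical density: absence of any OD change for the chosen duration defines the minimal inhibitory concentration.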

P. aeruginosa = assay: as above; type: cell-based; details: average of three separate experiments
How it was run: as §4

S. aureus K147 = assay: as above; type: cell-based; details: average of three separate experiments
How it was run: as §4

S. aureus = assay: as above; type: cell-based; details: average of three separate experiments
How it was run: as §4

S. epidermis = assay: as above; type: cell-based; details: average of three separate experiments
How it was run: as §4

[8] = tested on: mutant (Nal B, H744) of P. aeruginosa; assay: microbe, parasite or virus in culture; type: cell-based
Method: as §1
(§5) To test whether the peptides of the invention synergize with various antibiotics, the following method was employed. Fractional Inhibitory Concentration (FIC) was used to determine synergy of peptides combined with antibiotics (e.g., carbenicillin/ciprofloxacin) against Pseudomonas aeruginosa. The following methodology was followed:
(§6) (1) Determination of MIC of cationic peptides (MIC A):
(§7) 100 μl Mueller Hinton broth (MHB) was added per well
(§8) 12.5 μl of 10× test concentration peptide was added per well to get final peptide concentration of e.g., 128, 64, 32, . . . 0.025 μg/ml from row 1 to 11;
(§9) 10 μl of 10^−4 dilution of overnight bacterial culture was added per well.
(§10) (2) Determination of MIC of Carbenicillin/Ciprofloxacin (MIC B):
(§11) 100 μl MHB was added per well;
(§12) 100 μl of 2× test concentration of antibiotic was added in the first well of the row, and doubling dilutions performed across the plate from column 1 to 11;
(§13) (3) Determination of MIC of antibiotics (B) when combined with peptides at concentration A:
(§14) 100 μl Carbenicillin (512 μg/ml) or Ciprofloxacin (8 μg/ml) was added in each well of column 1; doubling dilutions were performed across the plate;
(§15) 100 μl of the peptide was added in all wells of row 1, mixed, and 100 μl withdrawn and added to row 2, etc., creating a checkerboard titration.
(§16) 10 μl of 10^−4 dilution of overnight culture was added per well;
(§17) plates were incubated at 37EC for 18-24 hours. Combination MIC values A and B were taken as the lowest concentration of drug that reduced bacterial growth by more than 50% in any given column.
(§18) (4) FIC index=FICA+FICB=(A)/MIC A+(B)/MIC B. An FIC index of approximately 0.5 or less indicates synergy; 1.0 reflects additivity; and >1.0 indicates antagonism.

[9] = tested on: β-lactamase derepressed mutant (H547) of P. aeruginosa; assay: microbe, parasite or virus in culture; type: cell-based; details: P. aeruginosa H547
Method: as §1, §5, §6, §7, §8, §9, §10, §11, §12, §13, §14, §15, §16, §17, §18

E. coli [10] = assay: Synergy study (checkerboard titration) with hen white lysozyme; type: cell-based
Method: as §1

P. aeruginosa (H103) = assay: as above; type: cell-based
Method: as §1

Salmonella typhi = assay: as above; type: cell-based
Method: as §1

[11] = Lethal endotoxemia in galactosamine-sensitized mice; type: in vivo, CD-1 mice; details: peptide 200 μg intraperitoneal within 10 min of 10 μg LPS; 24 hours post injection; 5 mice per group; no peptide 100
Method: To confirm this in vivo, endotoxic shock was induced by intraperitoneal injection of 10 μg of E.coli 0111:B4 LPS in phosphate-buffered saline (PBS; pH 7.2) into galactosamine-sensitized 8- to 10- week old female CD-1 mice (5 per group). In experiments involving peptides, 200 μg in 100 μl of sterile water was injected at separate intraperitoneal sites within 10 min of LPS injection. Survival was monitored at 24 hours post injection.

[12] = tested on: Pseudomonas aeruginosa strain M2; assay: Protection of neutropenic CD-1 mice challenged with Pseudomonas aeruginosa; type: in vivo; set-up: Survival post bacterial challenge, surviving mice: reference not given here; details: for Survival (%) post bacterial challenge: PBS 8
How it was run: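 Neutropenia induced by three i.p. cyclophosphamide doses ([…], alternate days); mice then infected i.p. with 200-300 organisms/mouse. Peptides (200 µg/mouse = 8 mg/kg) in buffered citrate given i.p. at 30 min (single) or 30 min and 16 hrs (double) post-challenge; PBS control; mean of 2 experiments.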

[13] = cationic peptide concentration, combined with lysozyme
[14] = lysozyme concentration, combined with the peptide

GWGSFFKKAAHVGKHVGKAALTHYL-NH2 [P-CN]
MIC As [1]: 1 µg/mL
MIC Z61 [2]: 4 µg/mL
MIC K799 [3]: 8 µg/mL
MIC C610 [4]: <0.5 µg/mL
MIC C587 [5]: 4 µg/mL
MIC C621 [6]: 4 µg/mL
MIC Va (Vibrio anguillarum (Va)): 2 µg/mL
Accumulated Mortalities (V. anguillarum): 5%
Accumulated Mortalities (V. anguillarum; listed as pleurocidin-CN): 5%
Mortalities (fish died on the day) (V. anguillarum; day 6 after V. anguillarum challenge): 1

KWKSFIKKLTKAAKKVVTTAKKPLIV [CM2]
MIC E. coli (E. coli [7]): 1 µg/mL
MIC P. aeruginosa (P. aeruginosa): 3 µg/mL
MIC S. aureus K147 (S. aureus K147): >64 µg/mL
MIC S. aureus (S. aureus): >64 µg/mL
MIC S. epidermis (S. epidermis): 5 µg/mL
(B) MIC of Cipro when combined with peptide ([8]; ciprofloxacin with peptide at concentration (A), Nal B, H744): .25 µg/mL
MIC A MIC of Peptides ([8]; peptide alone, P. aeruginosa mutant Nal B, H744 (Table 5)): 1 µg/mL
(A) Peptide doses together with Cipro ([8]; peptide concentration in combination with ciprofloxacin, Nal B, H744): .5 µg/mL
(B) MIC of Carb when combined with peptide ([9]; Carbenicillin with peptide at concentration (A)): 64 µg/mL
MIC A MIC of Peptides ([9]; peptide alone): 4 µg/mL
(A) Peptide doses together with Carb ([9]; peptide concentration in combination with Carbenicillin): .5 µg/mL
FIC for combination of cationic peptide and lysozyme (E. coli [10]): 0.25
Lowest [CP] showing synergy (E. coli [10]; [13]): 0.081 µg/mL
Lowest [Lyso] showing synergy (E. coli [10]; [14]): 7.8 µg/mL
FIC for combination of cationic peptide and lysozyme (P. aeruginosa (H103)): 0.37
Lowest [CP] showing synergy (P. aeruginosa (H103); [13]): 1.3 µg/mL
Lowest [Lyso] showing synergy (P. aeruginosa (H103); [14]): 7.8 µg/mL
FIC for combination of cationic peptide and lysozyme (Salmonella typhi): 0.53
Lowest [CP] showing synergy (Salmonella typhi; [13]): 2.61 µg/mL
Lowest [Lyso] showing synergy (Salmonella typhi; [14]): 31.3 µg/mL
Mortality (%) [11]: 80%
Survival post bacterial challenge, surviving mice ([12]; double dose (200 μg per mouse i.p. at 30 min and 16 hrs), 16 hr): 14
Survival post bacterial challenge, surviving mice ([12]; double dose, 24 hr): 14
Survival post bacterial challenge, surviving mice ([12]; double dose, 41 hr): 10
Survival post bacterial challenge, surviving mice ([12]; double dose, 48 hr): 7
Survival post bacterial challenge, surviving mice ([12]; double dose, 64 hr): 7
Survival (%) post bacterial challenge ([12]; double dose, 64 hr): 50%
Survival post bacterial challenge, surviving mice ([12]; double dose, 72 hr): 7
Survival (%) post bacterial challenge ([12]; double dose, 72 hr): 50%
Survival post bacterial challenge, surviving mice ([12]; double dose, 96 hr): 6
Survival (%) post bacterial challenge ([12]; double dose, 96 hr): 42%
Survival post bacterial challenge, surviving mice ([12]; single dose (200 μg per mouse i.p. at 30 min), 16 hr): 15
Survival post bacterial challenge, surviving mice ([12]; single dose, 24 hr): 15
Survival post bacterial challenge, surviving mice ([12]; single dose, 41 hr): 13
Survival post bacterial challenge, surviving mice ([12]; single dose, 48 hr): 12
Survival post bacterial challenge, surviving mice ([12]; single dose, 64 hr): 11
Survival (%) post bacterial challenge ([12]; single dose, 64 hr): 73%
Survival post bacterial challenge, surviving mice ([12]; single dose, 72 hr): 11
Survival (%) post bacterial challenge ([12]; single dose, 72 hr): 73%
Survival post bacterial challenge, surviving mice ([12]; single dose, 96 hr): 10
Survival (%) post bacterial challenge ([12]; single dose, 96 hr): 66%
